Laboratory results taken from patent publication US7087648B1, “Methods for modulating macrophage proliferation using polyamine analogs” (The Regents of the University of California, priority 1997, dated 2006).

Tested on: CD14^+/PCNA^+ peripheral blood macrophage
Assay: In vitro CD14/PCNA staining (FACSCAN) of PBMC from AIDS dementia patients cultured five days with agent
Format: cell-based, human
Conditions: for CD14^+/PCNA^+ / CD14^+/PCNA^− / total CD14: HIV dementia patient five; for CD14^+/PCNA^+: 0 drug: 74; for CD14^+/PCNA^−: 0 drug: 472; for total CD14: 0 drug: 546; for % Inhibition of CD14^+/PCNA antigen expression, mean: mean of HIV dementia patients
Protocol: We had previously separated peripheral blood monocytes on Ficoll. […] We then used Percoll gradient separation, which allows for denser cells to be captured. A two-step gradient was prepared in 15 mL conical tubes: bottom layer of 1.087 density Percoll, overlaid with 1.077 density. 1.5 mL whole heparinised blood was mixed with an equal volume of isotonic saline. This blood/saline was layered over the gradient and centrifuged. Cells from the 1.077 and 1.087 interfaces were collected, combined, and washed in 5 volumes of RPMI 1640. […] All further experiments were performed using 1.087 gradient.
Five×10^5 PBMC's isolated through a 1.087 g/cc Percoll/saline gradient were exposed to varied concentrations of agent after baseline CD14/PCNA staining was performed. The cells were cultured at 5×10^5 cells in RPM1-1640/10% fetal calf serum in a polypropylene tube (Falcon) at 37° C. for five days. After five days CD14/PCNA staining was performed on control and agent-treated cultures. FACSCAN analysis of PCNA-positive cells in control cultures was compared with agent-treated cultures and the percentage of control PCNA/CD14 cells was calculated. The results of such an experiment in which the effect of polyamine analog DEHOP (SunPharm; Florida) on proliferating macrophages (as detected by PCNA) from the blood of four patients with AIDS dementia are shown in FIG. 1A (with underlying data provided in Table 3). […] A comparison of the inhibitory effect of DEHOP and cyclosphosphamide, another anti-proliferative agent, was performed in vitro using the blood of one of these patients (“CB”).

With CCNCCCCNCCCCNCCCCNCC [DEHOP, 1,14-bis(ethylamino)-5,10-diazatetradecane] the “PCNA^+/CD14 cell survival” value (FIG. 6, averages of several (N) experiments) was “decrease”, the “% Inhibition of CD14^+/PCNA antigen expression” value (HIV dementia patient 1, DEHOP 2 um) was 79% and the “% Inhibition of CD14^+/PCNA antigen expression” value (HIV dementia patient 1, DEHOP 10 um) was 95%. The “% Inhibition of CD14^+/PCNA antigen expression” value (HIV dementia patient 1, DEHOP 50 um) was 84%, the “% Inhibition of CD14^+/PCNA antigen expression” value (HIV dementia patient 2, DEHOP 0.4 um) was 94% and the “% Inhibition of CD14^+/PCNA antigen expression” value (HIV dementia patient 2, DEHOP 2 um) was 94%. The “% Inhibition of CD14^+/PCNA antigen expression” value (HIV dementia patient 2, DEHOP 10 um) was 97%, the “% Inhibition of CD14^+/PCNA antigen expression” value (HIV dementia patient 3, DEHOP 0.4 um) was 66% and the “% Inhibition of CD14^+/PCNA antigen expression” value (HIV dementia patient 3, DEHOP 2 um) was 62%. The “% Inhibition of CD14^+/PCNA antigen expression” value (HIV dementia patient 3, DEHOP 10 um) was 58%, the “% Inhibition of CD14^+/PCNA antigen expression” value (HIV dementia patient 4, DEHOP 0.08 um) was 19% and the “% Inhibition of CD14^+/PCNA antigen expression” value (HIV dementia patient 4, DEHOP 0.4 um) was 25%. The “% Inhibition of CD14^+/PCNA antigen expression” value (HIV dementia patient 4, DEHOP 2 um) was 75%, the “CD14^+/PCNA^+” value (0.4 (um)) was 25 #cells/10,000 PBMC and the “CD14^+/PCNA^−” value (0.4 (um)) was 222 #cells/10,000 PBMC. For the same compound, the “total CD14” value (0.4 (um)) was 247 #cells/10,000 PBMC, the “CD14^+/PCNA^+” value (2 (um)) was 28 #cells/10,000 PBMC and the “CD14^+/PCNA^−” value (2 (um)) was 182 #cells/10,000 PBMC. The “total CD14” value (2 (um)) was 210 #cells/10,000 PBMC, the “CD14^+/PCNA^+” value (10 um) was 31 #cells/10,000 PBMC and the “CD14^+/PCNA^−” value (10 um) was 89 #cells/10,000 PBMC. The “total CD14” value (10 um) was 120 #cells/10,000 PBMC, the “percentage of proliferating macrophages (as detected by PCNA)” value (blood of four patients with AIDS dementia, FIG. 1A) was “significantly reduced the percentage of proliferating macrophages” and the “inhibitory effect compared with cyclosphosphamide” value (blood of patient five, Table 1) was “superior in inhibition”. The “% Inhibition of CD14^+/PCNA antigen expression, mean” value (from here on “% Inhibition … mean”) (DEHOP 0.08 um) was 19%, the “% Inhibition … mean” value (DEHOP 0.4 um) was 62% and the “% Inhibition … mean” value (DEHOP 2 um) was 78%. The “% Inhibition … mean” value (DEHOP 10 um) was 83%, the “% Inhibition … mean” value (DEHOP 50 um) was 84% and the “inhibition and/or killing of blood PCNA^+/CD14^+ cells” value (summary of the data shown) was “potent inhibition and/or killing”.
